In test [1] the test system is MRC1/CD206-expressing tumor-associated macrophages (MEMs) in 4T1 tumors. Description: Free peptide homing and immunofluorescence in the orthotopic 4T1 breast tumor model. The conditions noted are these: 30 nmoles i.v., 2 h circulation. The method, then:
(SEQ ID NO: 5) control peptide were injected intravenously into 4T1 tumor-bearing mice and allowed to circulate for 2 h. Mice were then sacrificed and tumor and tissues were analyzed by immunofluorescence using rabbit anti-FAM (green) and rat anti-CD206 or rat anti-TIE2 (red) antibodies, and counterstained with DAPI. All images were taken under the same imaging conditions. FAM-UNO accumulated in macrophages within tumors and lymph nodes positive for CD206 staining (A, B, C) and TIE2 (D, and H: Blow up of D). […] To ascertain that anti-CD206 is capable of detecting CD206 in the liver, an image was acquired with longer exposure time from an uninjected animal (FIG. 25). […] Green: FAM-peptide; Red: CD206 or TIE2, Blue: DAPI. Representative fields from multiple sections prepared from at least 3 tumors (n≥3 mice) are shown.
(§1) Tumor models were induced according to protocols approved by the Estonian Ministry of Agriculture, Committee of Animal Experimentation (permit #48). For the 4T1 breast model, 8-week old female Balb/c mice were injected in the mammary fat pad with 10^6 cells dispersed in 50 μL of PBS. For homing studies, mice were used 10 days later, when the tumor had reached ˜150 mm^3. For MCF-7 breast model, 8-week old female nude mice were implanted with an estrogen pellet, and 1 week later inoculated with 5×10^6 MCF-7 cells in 100 μL of cold Matrigel (BD Biosciences, CA, USA). Mice were used for homing studies three weeks later (tumor volume˜150 mm^3). For the metastatic gastric carcinoma, 10^6 MKN45-P cells in PBS were injected intraperitoneally in 8-week old female nude mice. Mice were used for homing studies two weeks later. For the metastatic melanoma model, 2×10^5 B16F10 cells were injected intravenously in 100 μL of PBS in C57 BL6 mice. The mice were used for homing studies 10 days after. For the angiogenic glioblastoma model, WT-GBM 24, 7×10^5 cells were stereotactically injected in the right striatum of Fox/Nu mice 2 mm lateral and posterior of bregma of 2.5 mm deep. The mice were used for homing studies 6-7 days after the injection.
For free peptide homing studies, mice were injected intravenously with 30 nmoles of FAM-peptides in 100 μL of PBS. For nanoparticle homing studies-FAM-UNO—NP-PTX-, mice were injected intravenously in mice bearing MCF-7 breast tumors with 1 mg of Polymer in 100 μL pf PBS and allowed to circulate for 6 h. For tissue collection, the mice were anesthetized and the tissues collected and immediately placed in 4% cold PFA and left overnight at 4-C. Tissues were washed with PBS for 2 h at room temperature and cryoprotected with sucrose 15% at 4-C overnight and then in sucrose 30% at 4·C overnight. The tumor and the control organs were placed together in the same block with OCT compound (Leica Biosystems, Wetzlar, Germany), snap-frozen in isopentane, and sectioned at 10 μm. FAM was detected using Rabbit anti-FITC (Invitrogen, CA, USA. Catalog # A-889) at a dilution of 1/100 and using Alexa Fluor-546 anti-rabbit antibody (Invitrogen, Ca, USA. Catalog # A-11035) at a dilution of 1/200. CD31 was detected using rat anti-mouse CD31 (BD Biosciences, CA, USA. Catalog #: 553370), TIE2 was detected using rat anti-mouse TIE2 (Biolegend, CA, USA. Catalog #124001), CD209 was detected using rat anti-mouse CD209 (Biolegend, CA, USA. Catalog #147802), HLA ABC was detected using rat anti Human HLA ABC (Bio-Rad, CA, USA. Product code MCA485G), and CD206 was detected using ratanti-mouse CD206 (Bio-Rad, CA, USA. Product code MCA2235GA); using 1/100 primary antibody dilution and Alexa Fluor-647 anti-Rat antibody (Invitrogen, CA, USA. Catalog #21247) at 1/200 dilution. To quantify FAM signal from confocal images, the green channel of images taken by using 20× magnification objective was opened with ImageJ, converted to 8-bit grayscale and the integrated pixel intensity was measured. Different regions of tumors from three different mice were used.

The subject of the next test is MEMs in WT-GBM tumors. The test is described as follows: Free peptide homing and immunofluorescence in the orthotopic WT-GBM glioblastoma model. To be noted: 30 nmoles i.v., 2 h. The method, then: (§2) Thirty nmoles of FAM-UNO or FAM-control peptide were injected intravenously into mice and allowed to circulate for 2 h. Mice were then sacrificed and tumor and tissues were analyzed by immunofluorescence using rabbit anti-FAM (green) and rat anti-CD206 (red) antibodies, and counterstained with DAPI. […] The metastases were induced by i.v. inoculation of B16F10 melanoma cells. […] Blue: DAPI. Representative fields from multiple sections (n≥3) prepared from at least 3 tumors are shown. Scale bar: 50 μm. Images shown are representative fields from multiple sections (≥3) prepared from at least 3 tumors (n≥3 mice). The graphs show mean+SEM of FAM signal quantified as described in Materials and Methods.
as §1
For free peptide homing studies, mice were injected intravenously with 30 nmoles of FAM-peptides in 100 μL of PBS. For nanoparticle homing studies-FAM-UNO—NP-PTX-, mice were injected intravenously in mice bearing MCF-7 breast tumors with 1 mg of Polymer in 100 μL pf PBS and allowed to circulate for 6 h. For tissue collection, the mice were anesthetized and the tissues collected and immediately placed in 4% cold PFA and left overnight at 4-C. Tissues were washed with PBS for 2 h at room temperature and cryoprotected with sucrose 15% at 4-C overnight and then in sucrose 30% at 4·C overnight. […] FAM was detected using Rabbit anti-FITC (Invitrogen, CA, USA. Catalog # A-889) at a dilution of 1/100 and using Alexa Fluor-546 anti-rabbit antibody (Invitrogen, Ca, USA. Catalog # A-11035) at a dilution of 1/200.

The subject of test [2] is MEMs in B16F10 melanoma lung metastases. The conditions noted are these: 30 nmoles i.v., 2 h. As to the method: as §2
as §1, with “For the angiogenic glioblastoma model, WT-GBM 24, 7×10^5 cells were stereotactically injected in the right striatum of Fox/Nu mice 2 mm lateral and posterior of bregma of 2.5 mm deep. The mice were used for homing studies 6-7 days after the injection.” left out
(§3) For free peptide homing studies, mice were injected intravenously with 30 nmoles of FAM-peptides in 100 μL of PBS. […] FAM was detected using Rabbit anti-FITC (Invitrogen, CA, USA. Catalog # A-889) at a dilution of 1/100 and using Alexa Fluor-546 anti-rabbit antibody (Invitrogen, Ca, USA. Catalog # A-11035) at a dilution of 1/200.

For a further test, the system named is MEMs in MKN45-P tumors. The conditions noted are these: 30 nmoles i.v., 2 h. As to the method: as §2
as §1, with “For the angiogenic glioblastoma model, WT-GBM 24, 7×10^5 cells were stereotactically injected in the right striatum of Fox/Nu mice 2 mm lateral and posterior of bregma of 2.5 mm deep. The mice were used for homing studies 6-7 days after the injection.” left out
as §3

Test [3] concerns the target T1, recombinant mouse macrophage mannose receptor rmMMR/CD206 (Mus musculus, UniProt Q61830).
T1 construct: purchased R&D Systems 2535-MM-050
T1 sequence (Q61830 20-1456): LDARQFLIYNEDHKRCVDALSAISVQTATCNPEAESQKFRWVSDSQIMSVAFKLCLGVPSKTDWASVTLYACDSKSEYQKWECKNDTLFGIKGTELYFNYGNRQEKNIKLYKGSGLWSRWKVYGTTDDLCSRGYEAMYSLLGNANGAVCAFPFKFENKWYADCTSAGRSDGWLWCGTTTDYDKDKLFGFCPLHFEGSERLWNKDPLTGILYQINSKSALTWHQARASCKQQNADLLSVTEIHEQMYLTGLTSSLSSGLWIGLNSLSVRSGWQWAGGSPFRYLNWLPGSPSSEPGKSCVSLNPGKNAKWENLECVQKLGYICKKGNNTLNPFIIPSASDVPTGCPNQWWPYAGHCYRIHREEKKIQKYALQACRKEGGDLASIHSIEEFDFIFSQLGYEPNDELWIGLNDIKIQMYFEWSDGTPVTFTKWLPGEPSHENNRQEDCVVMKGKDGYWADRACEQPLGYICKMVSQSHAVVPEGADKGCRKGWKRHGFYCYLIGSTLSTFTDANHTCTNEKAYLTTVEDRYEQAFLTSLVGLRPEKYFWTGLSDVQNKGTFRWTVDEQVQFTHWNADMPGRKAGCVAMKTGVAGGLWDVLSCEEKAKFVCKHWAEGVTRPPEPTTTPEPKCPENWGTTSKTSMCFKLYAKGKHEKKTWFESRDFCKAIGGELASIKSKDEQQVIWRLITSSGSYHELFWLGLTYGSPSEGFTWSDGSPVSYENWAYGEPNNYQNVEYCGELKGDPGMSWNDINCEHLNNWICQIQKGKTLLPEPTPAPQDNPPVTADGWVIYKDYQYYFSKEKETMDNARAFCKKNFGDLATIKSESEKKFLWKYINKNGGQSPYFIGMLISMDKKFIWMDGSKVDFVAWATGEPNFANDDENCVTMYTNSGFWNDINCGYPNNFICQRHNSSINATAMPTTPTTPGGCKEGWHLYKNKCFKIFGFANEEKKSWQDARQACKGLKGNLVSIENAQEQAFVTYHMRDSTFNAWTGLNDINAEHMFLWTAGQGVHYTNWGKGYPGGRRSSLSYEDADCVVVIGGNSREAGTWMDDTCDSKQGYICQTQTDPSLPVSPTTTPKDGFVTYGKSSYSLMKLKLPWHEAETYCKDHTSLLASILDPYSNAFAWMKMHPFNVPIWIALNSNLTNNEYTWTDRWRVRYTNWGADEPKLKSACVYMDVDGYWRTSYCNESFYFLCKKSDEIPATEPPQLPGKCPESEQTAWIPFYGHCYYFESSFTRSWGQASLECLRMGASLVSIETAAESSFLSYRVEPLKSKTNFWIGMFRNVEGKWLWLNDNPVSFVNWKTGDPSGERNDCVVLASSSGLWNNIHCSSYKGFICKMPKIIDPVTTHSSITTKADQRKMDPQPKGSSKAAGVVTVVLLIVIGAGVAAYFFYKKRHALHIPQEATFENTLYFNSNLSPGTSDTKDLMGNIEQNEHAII
Description: Fluorescence anisotropy assay with mouse recombinant CD206. It is filed as binding. The conditions noted are these: 50 nM FAM peptide, 1 μM protein, 25 °C. As to the method:
The stocks of fluorescent ligands (FAM-UNO, FAM-CSPGAK and FAM-CPMTDNE) in mQ water were stored at −20° C. […], 150 mM NaCl, 1 mM CaCl2, 0.1% Pluronic F-127, pH 7.4) on the day of experiment. The concentration of fluorescent ligands was determined by absorbance of FAM (E495=75000 M^−1 cm^−1).
The recombinant mouse macrophage mannose receptor rmMMR/CD206 (R&D Systems, catalog number: 2535-MM-050) and recombinant mouse CD163 (R&D Systems, catalog number: 7435-CD-050) were reconstituted at 1 mg/ml in IB, aliquoted and stored at −20° C. To generate linearized version of cyclic FAM-UNO peptide, the peptide at 1 mM concentration was preincubated for 24 h at room temperature in a dark place with 3 mM DTT and diluted with IB 2×10^5 times before the FA assay. The control experiment with FAM-CPMTDNE peptide (FIG. 22) was performed to rule out the possibility of disulphide bond formation, which could affect the binding properties of linear peptides. Initially, the peptide was preincubated in DMSO for 4 days at room temperature to enhance the disulphide bond formation, and then diluted in IB buffer with 3 mM DTT, and the disappearance of preformed dimer was observed as a change in FA signal.
In all experiments, FA signal measurements were done under pseudo first-order conditions with 50 nM singly labelled FAM peptides and 1 μM proteins. […] Assays were carried out in kinetic mode in a total volume of 30 μl at 25° C. on the PHERAstar (BMG Labtech, Germany) microplate reader using an optical module with excitation and emission filters of 485 nm (slit 10 nm) and 520 nm (slit 10 nm), respectively. Dual emission detection mode allows simultaneous recording of intensities that are parallel (l) and perpendicular (1) to the plane of excitation light. […] The background fluorescence (receptor and buffer components in the absence of fluorescent ligand) was subtracted independently from all intensity channels. FA signals at time t after initiation of binding reaction was calculated as parameters r(t) from the equation: […]
On the technique in general: Fluorescence polarisation rises when a labelled molecule tumbles more slowly, as on binding a larger partner.

Results on 2 substances are retold here after patent US11571484B2, “Compositions that target tumor-associated macrophages and methods of use therefor” (Sanford Burnham Prebys Medical Discovery Institute, priority 2017, dated 2023).

For the substance “FAM-CRKQGEAKC: FAM-labeled control peptide CRKQGEAKC (SEQ ID NO: 5) of the same charge and molecular weight as FAM-UNO (not fully specified; FAM label) [reference compound]”, in test [1], the “accumulation in MEMs / tumor homing” value is recorded as “no tumor homing”. Besides, the accumulation in tumor result in the test on MEMs in WT-GBM tumors is “did not accumulate in the tumor”; with MEMs in WT-GBM tumors (listed as FAM-Control peptide), “Little to no”. Also, in test [2], the “homing to melanoma lung metastases” value is “Little to no”. The “accumulation in MEMs / CD206+ cells” value in the test with MEMs in MKN45-P tumors is “no accumulation was detected in CD206^+ cells”.

For the substance “FAM-CPMTDNE: FAM-labeled control peptide CPMTDNE (SEQ ID NO: 7) (not fully specified; FAM label) [reference compound]”, in test [3], the “change in fluorescence anisotropy (interaction) with mouse recombinant CD206” value is “did not cause significant changes in anisotropy values”.
